Activity calls are given as the source filed them.
Assays:
[1] = target: T1, Heat shock factor protein 1 (Mus musculus, UniProt P38532); assay: inhibition of MG132-induced HSE-luciferase signal, confirmation, cell-based, NIH3T3, luminescence, dose retest (AID 2382); assay type: functional;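 note: NIH3T3 fibroblasts with HSF1-driven luciferase reporter stressed by proteasome inhibitor MG132; luminescence from HSF1-driven luciferase expression after 8 hours of MG132 stress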
T1 sequence (P38532 whole entry): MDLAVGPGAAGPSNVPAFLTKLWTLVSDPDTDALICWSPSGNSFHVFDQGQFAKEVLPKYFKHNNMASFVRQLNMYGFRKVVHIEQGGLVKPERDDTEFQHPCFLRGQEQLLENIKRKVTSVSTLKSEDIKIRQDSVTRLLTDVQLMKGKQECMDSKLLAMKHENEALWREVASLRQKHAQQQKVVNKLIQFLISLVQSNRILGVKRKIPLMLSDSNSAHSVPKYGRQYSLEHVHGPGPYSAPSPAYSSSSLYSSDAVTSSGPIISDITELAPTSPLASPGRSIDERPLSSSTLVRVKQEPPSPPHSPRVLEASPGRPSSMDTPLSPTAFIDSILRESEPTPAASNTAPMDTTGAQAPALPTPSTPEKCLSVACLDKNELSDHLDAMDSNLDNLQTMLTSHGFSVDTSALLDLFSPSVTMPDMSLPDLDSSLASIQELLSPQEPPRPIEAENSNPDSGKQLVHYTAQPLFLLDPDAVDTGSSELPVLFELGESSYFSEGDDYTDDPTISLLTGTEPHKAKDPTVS

Cytochrome P450 2D6 = Cytochrome P450 2D6 (Homo sapiens, UniProt P10635);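 note: CYP2D6 member of a cytochrome P450 panel assay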
[2] = inhibitors of intracellular T. cruzi replication, confirmation, NIH3T3 host cells, beta-gal luminescence (AID 2044); assay type: functional, cell-based;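 note: intracellular parasites grown in NIH/3T3 mouse fibroblasts as host cells; luminescent beta-galactosidase reporter signal from transgenic T. cruzi replicating inside host cells; inhibitors lower the luminescence signal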
[3] = cytotoxicity toward NIH3T3 fibroblasts, dose response, counter-screen, cell-based, ATP luminescence, mouse fibroblasts (AID 2010); assay type: functional;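 note: cells exposed to compound for about 90 hours before reading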
Cytochrome P450 2C19 = Cytochrome P450 2C19 (Homo sapiens, UniProt P33261); assay: Cytochrome panel assay with activity outcomes. Panel member name: p450-cyp2c19 Compounds with AC50 equal or less than 10 uM are considered active; assay type: functional
Cytochrome P450 3A4 = Cytochrome P450 3A4 (Homo sapiens, UniProt P08684);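 note: CYP3A4 tested as one member of a cytochrome P450 panel screen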
[4] = test system: Streptococcus sp. 'group A'; assay: growth inhibition of control SK(-) GAS strain, dose response, counter-screen for streptokinase expression inhibitor project, luminescence, kanamycin, BacTiterGlo, confirmation (AID 1900); assay type: functional, organism-based
Streptococcus = assay: Group A Streptococcus viability loss, dose response, counter-screen for streptokinase expression inhibitor project, luminescence, BacTiterGlo (AID 1915); assay type: functional, organism-based;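 note: potency for reduction of bacterial viability or growth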

Cytochrome P450 2D6, sequence (P10635 whole entry): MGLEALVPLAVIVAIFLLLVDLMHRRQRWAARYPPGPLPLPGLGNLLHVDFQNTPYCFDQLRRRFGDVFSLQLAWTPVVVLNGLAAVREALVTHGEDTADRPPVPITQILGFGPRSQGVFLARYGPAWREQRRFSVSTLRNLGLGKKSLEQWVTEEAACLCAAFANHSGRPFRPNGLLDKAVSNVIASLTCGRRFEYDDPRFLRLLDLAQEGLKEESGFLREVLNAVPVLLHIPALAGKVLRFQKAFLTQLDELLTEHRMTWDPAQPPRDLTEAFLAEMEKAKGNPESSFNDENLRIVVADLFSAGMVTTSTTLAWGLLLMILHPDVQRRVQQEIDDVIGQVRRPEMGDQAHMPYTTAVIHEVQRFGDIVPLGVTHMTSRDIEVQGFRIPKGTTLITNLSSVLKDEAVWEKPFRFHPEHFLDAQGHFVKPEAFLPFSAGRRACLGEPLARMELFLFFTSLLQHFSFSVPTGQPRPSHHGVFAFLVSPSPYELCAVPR
Cytochrome P450 2C19, sequence (P33261 whole entry): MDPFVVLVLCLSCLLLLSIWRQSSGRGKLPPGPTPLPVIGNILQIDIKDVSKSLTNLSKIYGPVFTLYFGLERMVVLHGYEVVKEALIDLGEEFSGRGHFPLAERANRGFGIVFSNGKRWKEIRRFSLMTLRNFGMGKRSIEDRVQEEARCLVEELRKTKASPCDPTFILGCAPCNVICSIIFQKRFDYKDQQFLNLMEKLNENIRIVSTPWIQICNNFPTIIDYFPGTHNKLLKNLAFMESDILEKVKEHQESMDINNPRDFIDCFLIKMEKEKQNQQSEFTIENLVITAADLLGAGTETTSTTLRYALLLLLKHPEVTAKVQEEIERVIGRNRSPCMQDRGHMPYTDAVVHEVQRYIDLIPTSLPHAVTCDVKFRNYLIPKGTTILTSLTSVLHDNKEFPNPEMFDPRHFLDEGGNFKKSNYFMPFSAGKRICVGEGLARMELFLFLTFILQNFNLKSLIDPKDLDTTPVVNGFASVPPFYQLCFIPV
Cytochrome P450 3A4, sequence (P08684 whole entry): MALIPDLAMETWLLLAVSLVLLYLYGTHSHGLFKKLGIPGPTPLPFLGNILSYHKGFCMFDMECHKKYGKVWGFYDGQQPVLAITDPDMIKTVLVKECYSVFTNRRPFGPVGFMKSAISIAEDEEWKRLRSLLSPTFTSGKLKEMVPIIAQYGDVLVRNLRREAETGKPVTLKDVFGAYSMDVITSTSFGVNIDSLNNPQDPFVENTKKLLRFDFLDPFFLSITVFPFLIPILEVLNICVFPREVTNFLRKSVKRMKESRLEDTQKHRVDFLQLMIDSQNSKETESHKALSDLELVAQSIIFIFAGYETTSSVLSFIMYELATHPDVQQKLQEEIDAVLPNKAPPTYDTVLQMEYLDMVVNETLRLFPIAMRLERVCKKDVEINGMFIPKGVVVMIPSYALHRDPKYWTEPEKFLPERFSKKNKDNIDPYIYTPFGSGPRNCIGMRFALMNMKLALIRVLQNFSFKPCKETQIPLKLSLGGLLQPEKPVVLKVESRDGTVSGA

CCOC(=O)N1CCN(CC(O)COC2CC(C)CC(C)(C)C2)CC1 (configuration not stated)
EC50 [1]: > 195 µM (not active)

CC(C)CCNC(=O)c1ccc2c(SCC(=O)O)c3c(nc2c1)CCC3
EC50 [1]: > 195 µM (not active)

O=C(O)CN1CCN(Cc2ccc(F)cc2Cl)C1=O
AC50 (Cytochrome P450 2D6): 20 µM (inconclusive)

NS(=O)(=O)c1ccc(Nc2nc(-c3cccc([N+](=O)[O-])c3)cs2)cc1
EC50 [2]: 4.08 µM (active) | EC50 [3]: > 60 µM (not active)

CCN(CC)S(=O)(=O)c1ccc(C(=O)Nc2ncn(Cc3ccccc3)n2)cc1
AC50 (Cytochrome P450 2C19; read-out: AC50): 25.1 µM (inconclusive)

COc1ccc(COC(=O)N/N=C2/C[C@@H](O)[C@@H](O)[C@@H]3[C@@H]4C(=O)N(c5cccc(Oc6ccccc6)c5)C(=O)[C@H]4CC[C@@H]23)cc1
AC50 (Cytochrome P450 2D6): 3.16 µM (inconclusive)

C=CC[C@@H]1C=C[C@H](O/N=C(\C)CCN2CCc3nc(CC)c(CC)cc3C2)[C@H](CO)O1
AC50 (Cytochrome P450 2D6): 3.98 µM (inconclusive)

c1cncc(-c2nc(N3CCNCC3)c3ccccc3n2)c1
AC50 (Cytochrome P450 3A4): 31.6 µM (inconclusive)

COc1ccccc1-c1cncnc1N(C)Cc1ccco1
AC50 (Cytochrome P450 2D6): 25.1 µM (inconclusive)

CC(O)(CS(=O)(=O)c1cccc(C(F)(F)F)c1)C(=O)Nc1ccc(C(F)(F)F)cc1 (configuration not stated)
AC50 (Cytochrome P450 2D6): 0.0224 µM (inconclusive)

Cc1nc2cnc(Nc3ccccc3)nc2n(C[C@H]2CCCO2)c1=O
AC50 (Cytochrome P450 3A4): 15.8 µM (inconclusive)

Cc1ccc(S(=O)(=O)NCCSc2nnnn2C)cc1
AC50 (Cytochrome P450 3A4): 14.1 µM (inconclusive)

O=C(c1ccccc1)N1CCN(CC2CC=CCC2)CC1 (configuration not stated)
EC50 [1]: > 195 µM (not active)

Cc1nnc(Sc2cc(C(=O)NCCCN(C)Cc3ccccc3)c3ccccc3n2)s1
EC50 [2]: 0.521 µM (active) | EC50 [3]: > 60 µM (not active)

Nc1cc(N)nc(SCC(=O)c2ccccc2)n1
AC50 (Cytochrome P450 3A4): 35.5 µM (inconclusive) | AC50 (Cytochrome P450 2C19; read-out: AC50): 7.08 µM (inconclusive)

Cc1ccc([C@@]2(C)CC/C(=N/N=C3\CC[C@](C)(c4ccc(C)c(C)c4)c4cc(C)c(C)cc43)c3cc(C)c(C)cc32)cc1C
AC50 (Cytochrome P450 2C19): inconclusive

O=S(=O)(Nc1cccc(Oc2cnccn2)c1)c1ccc(F)cc1
EC50 [1]: > 195 µM (not active)

COC(=O)CSc1ccc2nnc(-c3ccc(F)cc3)n2n1
AC50 (Cytochrome P450 2C19; read-out: AC50): 28.2 µM (inconclusive)

COc1cc(NC(=O)c2cc(-c3ccc4c(c3)OCO4)on2)cc(OC)c1OC
EC50 [2]: 0.115 µM (active) | EC50 [3]: > 30 µM (not active)

Cc1cc(/C=C2\SC(=O)NC2=O)c(C)n1-c1ccc(N2CCOCC2)cc1
EC50 [4]: 1.32 µM (active) | EC50 (Streptococcus): 4.72 µM (active)

CN1CCN(c2ncnc3ccc(-c4ccc(C(=O)N(C)C)cc4)cc23)CC1
AC50 (Cytochrome P450 3A4): 25.1 µM (inconclusive)

O=C(NCc1ccccc1)c1onc(CSc2ccccc2)c1C(=O)NCC1CC1
EC50 [2]: 4.28 µM (active) | EC50 [3]: > 60 µM (not active)

CCCn1c(-c2cccs2)nc2nc3ccccc3nc21
AC50 (Cytochrome P450 2D6): 28.2 µM (inconclusive)

CC(=O)NC1(C(F)(F)F)C(=O)N(Cc2ccccc2)C2=C1C(=O)CC(C)(C)C2 (configuration not stated)
AC50 (Cytochrome P450 3A4): 14.1 µM (inconclusive) | AC50 (Cytochrome P450 2C19; read-out: AC50): 15.8 µM (inconclusive)

COC(=O)N1CCC2(CCN(Cc3ccc(C#N)cc3)CC2)CC1
AC50 (Cytochrome P450 2C19; read-out: AC50): 0.1 µM (inconclusive)

O=C1CCC[C@@H](C(C(=O)OCc2ccccc2)C(=O)OCc2ccccc2)C1
AC50 (Cytochrome P450 3A4): 3.98 µM (inconclusive) | AC50 (Cytochrome P450 2C19; read-out: AC50): 3.98 µM (inconclusive)

Cc1c(C=O)c2ccccn2c1C(=O)c1ccncc1
AC50 (Cytochrome P450 3A4): 10 µM (inconclusive) | AC50 (Cytochrome P450 2D6): 25.1 µM (inconclusive)

CC12CCC3C(CC=C4CC5(CCC43C)OCCO5)C1CCC2=O (configuration not stated)
EC50 [1]: > 195 µM (not active)

O=C(NCCN1CCN(C(=O)c2cc3ccccc3oc2=O)CC1)c1cc2ccccc2oc1=O
AC50 (Cytochrome P450 3A4): 14.1 µM (inconclusive) | AC50 (Cytochrome P450 2C19; read-out: AC50): 3.98 µM (inconclusive)

CC(C)Cn1c(N)c(C(=O)CSc2nc3ccccc3c(=O)n2CCCN2CCOCC2)c(=O)n(C)c1=O
EC50 [2]: 1.5 µM (active) | EC50 [3]: > 60 µM (not active)

CC1(C)OC(=O)N(Cc2ccco2)C1(C)O (configuration not stated)
AC50 (Cytochrome P450 2C19; read-out: AC50): 14.1 µM (inconclusive)

O=C(O)C1C2C=CC(O2)C1C(=O)Nc1ccc2c(c1)OCCO2 (configuration not stated)
EC50 [1]: 25.9 µM (active)

CCOc1ccc(C(=O)COC(=O)Cc2nnc(O)c3ccccc23)cc1
EC50 [1]: > 195 µM (not active)

CCOC(=O)c1nc(Nc2cc(C)cc(C)c2)c2ccccc2n1
EC50 [2]: 2.85 µM (active) | EC50 [3]: > 30 µM (not active)

COc1cc(N)c(Cl)cc1C(=O)N[C@@H]1CN2CCC1CC2
AC50 (Cytochrome P450 2D6): 39.8 µM (inconclusive)

CC(C)(C)C1CCC2(CC1)CCN(CCCN1CCOCC1)CC2
AC50 (Cytochrome P450 2D6): 3.98 µM (inconclusive)

O=C(NCCc1csc(-c2ccccc2)n1)c1ccccc1F
EC50 [2]: 0.531 µM (active) | EC50 [3]: > 60 µM (not active)

Cc1ccc(-n2c(=O)cc(N3CCN(Cc4ccccc4)CC3)[nH]c2=O)cc1
EC50 [1]: > 195 µM (not active)

OC(COc1ccc(F)cc1Cl)CN1CCC(Cc2ccccc2)CC1 (configuration not stated)
EC50 [2]: 4.04 µM (active) | EC50 [3]: > 30 µM (not active)

Cn1c(=O)c2nc(CCS)[nH]c2n(C)c1=O
AC50 (Cytochrome P450 3A4): 10 µM (inconclusive)

CCOc1ccc(CN(C)CC(=O)Nc2cc(OC)c([N+](=O)[O-])cc2C)cc1
EC50 [2]: 0.404 µM (active) | EC50 [3]: > 30 µM (not active)

COCCn1c(=O)c(-c2cccs2)nc2cnc(OCc3ccccc3)nc21
AC50 (Cytochrome P450 3A4): 3.16 µM (inconclusive)

O=C(CN1CCN(Cc2ccccc2)CC1)c1ccc(Br)cc1
AC50 (Cytochrome P450 3A4): 14.1 µM (inconclusive) | AC50 (Cytochrome P450 2C19; read-out: AC50): 14.1 µM (inconclusive)

Cc1nc(C)c(-c2nnc(-c3cccc(S(=O)(=O)N(C)C)c3)o2)cc1C(=O)NN
EC50 [1]: > 195 µM (not active)

Cc1ccc(OCC(=O)Nc2cnc(O)nc2O)cc1C
EC50 [1]: > 195 µM (not active)

CC(C)N(CCC(=O)c1ccc2ccccc2c1)Cc1ccccc1
AC50 (Cytochrome P450 3A4): 39.8 µM (inconclusive)

COc1ncc2ncc(=O)n(Cc3cccs3)c2n1
AC50 (Cytochrome P450 3A4): 1.26 µM (inconclusive)

CN(C)CCCN(C(=O)c1ccc(S(=O)(=O)N2CCc3ccccc32)cc1)c1nc2c(Cl)cccc2s1
EC50 [2]: 0.206 µM (active) | EC50 [3]: 20.2 µM (active)

Brc1ccccc1OCCCCCN1CCCC1
EC50 [2]: 2.22 µM (active) | EC50 [3]: > 30 µM (not active)

COc1ccccc1CN1CCCC(CN(CCN(C)C)C(=O)C2CCCC2)C1 (configuration not stated)
EC50 [1]: > 195 µM (not active)

CCNc1ncc2nc(-c3cccs3)c(=O)n(CCc3ccccc3)c2n1
AC50 (Cytochrome P450 3A4): 15.8 µM (inconclusive) | AC50 (Cytochrome P450 2D6): 20 µM (inconclusive)

CCOc1cccc(CN2CCCC(CCC(=O)NCc3ccccc3F)C2)c1O (configuration not stated)
EC50 [2]: 0.222 µM (active) | EC50 [3]: > 60 µM (not active)

CN1CCN(c2nc(Nc3cccc(C(F)(F)F)c3)nc(N3CCOCC3)n2)CC1
EC50 [2]: 1.78 µM (active) | EC50 [3]: 10.3 µM (active)

O=C(c1ccc(CN2CCc3ccccc3C2)cc1)N1CCc2ccccc2C1
AC50 (Cytochrome P450 3A4): 3.98 µM (inconclusive)

Clc1ccc(CNCCCSc2ncccn2)cc1Cl
EC50 [2]: 1.19 µM (active) | EC50 [3]: > 60 µM (not active)

CCOC(=O)c1cc2c(C(F)(F)F)cc(-c3ccccc3)nc2o1
AC50 (Cytochrome P450 2C19; read-out: AC50): 25.1 µM (inconclusive)

Cc1cc(Nc2ccc3c(c2)OCCO3)c2cc(Cl)ccc2n1
EC50 [1]: 17.2 µM (active)

CC(NC(=O)CN1C(=O)NC(Cc2ccccc2)(Cc2ccccc2)C1=O)C12CC3CC(CC(C3)C1)C2 (configuration not stated)
EC50 [2]: 2.81 µM (active) | EC50 [3]: > 30 µM (not active)

C/C=C(\C)CN1CCC(n2nccc2NC(=O)c2ccc(OC)cc2)CC1
EC50 [2]: 0.703 µM (active) | EC50 [3]: > 60 µM (not active)

CCCCN1C(=O)NC(=O)/C(=C(/CC)NCc2ccc(F)cc2)C1=O
AC50 (Cytochrome P450 3A4): 28.2 µM (inconclusive)

NS(=O)(=O)c1ccc(/N=N\c2cc3ccccc3c(C(=O)O)c2O)cc1
AC50 (Cytochrome P450 3A4): 3.16 µM (inconclusive)

N#Cc1cccc(-c2cncnc2NCc2ccccc2)c1
AC50 (Cytochrome P450 2D6): 20 µM (inconclusive)

Cc1noc(C)c1-c1nccc(NCCN2CCOCC2)n1
AC50 (Cytochrome P450 3A4): 20 µM (inconclusive) | AC50 (Cytochrome P450 2D6): 20 µM (inconclusive)

COc1cccc(-c2cc(NCc3cnc(C)cn3)ncn2)c1
AC50 (Cytochrome P450 2C19; read-out: AC50): 0.398 µM (inconclusive)

N[C@H](CCCC(=O)O)C(=O)O
AC50 (Cytochrome P450 2C19): inconclusive

CCOCCn1c(SCC(=O)OCc2ccccc2)nc2c1c(=O)[nH]c(=O)n2C
EC50 [1]: > 195 µM (not active)

CN(C)c1ccc(-c2noc(C3CCN(C(=O)Nc4ccc(Cl)cc4)CC3)n2)cc1
EC50 [1]: > 195 µM (not active)

Cc1ccc(-n2c(C)cc(/C=C(\C#N)C(=O)NCC3CCCO3)c2C)cc1 (configuration not stated)
AC50 (Cytochrome P450 3A4): 31.6 µM (inconclusive) | AC50 (Cytochrome P450 2D6): 14.1 µM (inconclusive)

Cc1c(C2=CCN(S(=O)(=O)c3ccc(Br)cc3)CC2)c2ccccc2n1C
EC50 [1]: > 195 µM (not active)

Cc1nn(-c2ccc([N+](=O)[O-])cc2)c2c1C(c1ccc(OC(F)F)cc1)N1C(=N2)C(=O)Nc2ccccc21 (configuration not stated)
EC50 [2]: 1.31 µM (active) | EC50 [3]: > 60 µM (not active)
